Activity calls are given as the source filed them. No cut-off for these calls is given here.
Tests used:
[1] = system: Trypanosoma cruzi; assay: Antitrypanosomal activity against epimastigote stage of Trypanosoma cruzi Dm28c after 72 hrs by resazurin dye based microplate reader analysis; type: functional
[2] = system: Trypanosoma cruzi; assay: Antitrypanosomal activity against trypomastigotes stage of Trypanosoma cruzi strain CL Brener infected in acute chagas BALB/c mouse model assessed as survival rate at 50 mg/kg/day, po administered for 14 days started on day 9 post infection measured at 30 to 60 days; type: functional, organism-based
[3] = Selectivity index, ratio of CC50 for African green monkey Vero cells to IC50 for epimastigote stage of Trypanosoma cruzi Dm28c; type: functional
[4] = system: Mus musculus; assay: Toxicity in acute chagas BALB/c mouse model infected with trypomastigotes stage of Trypanosoma cruzi strain CL Brener assessed as mortality at 50 mg/kg/day, po administered for 14 days started on day 9 post infection measured at 30 to 60 days; type: organism-based; details: in vivo
[5] = Toxicity in acute chagas BALB/c mouse model infected with trypomastigotes stage of Trypanosoma cruzi strain CL Brener assessed as mortality at 50 mg/kg/day, po administered for 14 days started on day 9 post infection measured on day 20; type: organism-based; details: in vivo
[6] = system: Trypanosoma cruzi; assay: (§1) Antitrypanosomal activity against trypomastigotes stage of Trypanosoma cruzi strain CL Brener infected in acute chagas BALB/c mouse model assessed as survival rate at 10 mg/kg/day, po administered for 14 days started on day 9 post infection measured at 30 to 60 days; type: functional
[7] = system: Trypanosoma cruzi; assay: as §1, with “time for maximum parasitaemia parasitaemia” for “survival rate”, “by Neubauer chamber analysis (reference value: 26 days)” for “measured at 30 to 60 days”; type: functional
[8] = system: Trypanosoma cruzi; assay: as §1, with “assessed as reduction in parasitaemia at 10” for “assessed as survival rate at 10”, “60 days by Neubauer chamber analysis relative to control” for “60 days”; type: functional; design: scale not given: the % may be the effect or the level left

| Compound | IC50 [1] [µM] | also measured |
| --- | --- | --- |
| C/C(=N\NC(N)=[Se])c1cccc(C)c1 | 12.2 | – |
| C/C(=N\NC(N)=[Se])c1ccccc1 | 12.4 | – |
| C/C(=N\NC(N)=[Se])C(C)C | 50.2 | – |
| CN(C)c1ccc(/C=N/NC(N)=[Se])cc1 | 26.2 | – |
| CC/C(=N\NC(N)=[Se])c1cccc(C(F)(F)F)c1 | 6.5 | – |
| C/C(=N\NC(N)=[Se])c1cccc(Cl)c1 | 12.5 | – |
| COc1ccc(/C=N/NC(N)=[Se])cc1 | 25.5 | – |
| C/C(=N\NC(N)=[Se])c1ccc(Cl)c(Cl)c1 | 50.2 | – |
| O=C(Cn1ccnc1[N+](=O)[O-])NCc1ccccc1 [BENZNIDAZOLE] | 12.5 | Activity [2]: Active; Ratio CC50/IC50 [3]: 25; Activity [4]: Non-toxic |
| C/C(=N\NC(N)=[Se])c1cccc(Br)c1 | 1.2 | mortality at 336 h [5]: 100%; survival at 10 mg/kg/day [6]: 71%; Time [7]: 26 days; Ratio CC50/IC50 [3]: 39; Activity [8]: 50% |
